Values after ≈ are worked out from the molar mass of the structure shown. Values joined by “and” are separate entries in the source; they are usually repeats but may differ in a detail not shown here. Identical values can stand only once. A value given as a limit tells only on which side of the number the result lay.

One test has as its system HEK293. The test is described as follows: cells. The class given is functional, Homo sapiens, ATCC CRL1573. Particulars: ASSAY_TEST Inhibition of Cell Viability, detection method Resazurin, Fluorescence (ex560/em590), MEDIA DMEM with 10% FBS, plate type 384well, TC, CORNING #3712, time 18 hr.
The next test concerns Staphylococcus aureus. The test is described as follows: microbe, parasite or virus in culture. Particulars: ATCC 43300, 18 h, ASSAY_TEST Inhibition of Bacterial Growth, detection method Absorption (OD600), MEDIA CAMHB, plate type 384well, NBS, CORNING #3640.
Another test deals with Escherichia coli. The test is described as follows: microbe, parasite or virus in culture. Particulars: ATCC 25922, 18 h, ASSAY_TEST Inhibition of Bacterial Growth, detection method Absorption (OD600), MEDIA CAMHB, plate type 384well, NBS, CORNING #3640.
The subject of the next test is Klebsiella pneumoniae. The test can be described thus: microbe, parasite or virus in culture. Particulars: ATCC 700603, 18 h, ASSAY_TEST Inhibition of Bacterial Growth, detection method Absorption (OD600), MEDIA CAMHB, plate type 384well, NBS, CORNING #3640.
The subject of another test is Pseudomonas aeruginosa. The test is described as follows: microbe, parasite or virus in culture. Particulars: ATCC 27853, 18 h, ASSAY_TEST Inhibition of Bacterial Growth, detection method Absorption (OD600), MEDIA CAMHB, plate type 384well, NBS, CORNING #3640.
For a further test, the system named is Acinetobacter baumannii. The test is described as follows: microbe, parasite or virus in culture. Particulars: ATCC 19606, 18 h, ASSAY_TEST Inhibition of Bacterial Growth, detection method Absorption (OD600), MEDIA CAMHB, plate type 384well, NBS, CORNING #3640.
Another test has as its system Candida albicans. The test is described as follows: microbe, parasite or virus in culture. Particulars: ATCC 90028, ASSAY_TEST Inhibition of Fungal Growth, detection method Absorption (OD530), plate type 384well, NBS, CORNING #3640.
[1] abbreviates: Homo sapiens, ATCC CRL1573, HEK293, read-out: CC50.

Description for Acinetobacter baumannii: Antibacterial activity against Acinetobacter baumannii ATCC 19606 (CO-ADD:GN_034); MIC in CAMBH media using NBS plates, by OD600
Description for Candida albicans: Antifungal activity against Candida albicans ATCC 90028 (CO-ADD:FG_001); MIC in YNB media using NBS plates, by OD630
Description for Cryptococcus neoformans: Antifungal activity against Cryptococcus neoformans H99 ATCC 208821 (CO-ADD:FG_002); MIC in YNB media using NBS plates, by Resazurin OD(600-570)
Description for Escherichia coli: Antibacterial activity against Escherichia coli ATCC 25922 (CO-ADD:GN_001); MIC in CAMBH media using NBS plates, by OD(600)
Description for Klebsiella pneumoniae: Antibacterial activity against Klebsiella pneumoniae MDR ATCC 70063 (CO-ADD:GN_003); MIC in CAMBH media using NBS plates, by OD(600)
Description for Pseudomonas aeruginosa: Antibacterial activity against Pseudomonas aeruginosa ATCC 27853 (CO-ADD:GN_042); MIC in CAMBH media using NBS plates, by OD(600)
Description for Staphylococcus aureus: Antibacterial activity against Staphylococcus aureus MRSA ATCC 43300 (CO-ADD:GP_020); MIC in CAMBH media, using NBS plates, by OD(600)

For the compound `CC(=O)Nc1cc(C(=O)Nc2cc(C(=O)Nc3nc(C(=O)NCCCN(C)C)c(CCC(C)C)s3)n(C)c2)n(C)c1`, in the test on HEK293 (setting [1]), the CC50 was more than 32 µg/mL. For the same compound, the MIC in the test on Cryptococcus neoformans was 16 µg/mL; against Staphylococcus aureus it was 16 µg/mL; with Escherichia coli, more than 32 µg/mL; with Klebsiella pneumoniae it was more than 32 µg/mL; against Pseudomonas aeruginosa, more than 32 µg/mL; in the test on Acinetobacter baumannii it was more than 32 µg/mL. The MIC in the test with Candida albicans was more than 32 µg/mL.

For the compound `CN(C)CCNC(=O)c1cc(NC(=O)c2cc(NC(=O)c3ccc(/C=C/c4ccc(N(C)C)cc4)nc3)cn2C)cn1C.O=C(O)C(F)(F)F`, the CC50 with HEK293 (setting [1]) amounted to 2.17 µg/mL. Besides, the MIC is 1 µg/mL in the test with Staphylococcus aureus; more than 32 µg/mL in the test on Escherichia coli; more than 32 µg/mL in the test on Klebsiella pneumoniae; more than 32 µg/mL in the test on Pseudomonas aeruginosa; more than 32 µg/mL with Acinetobacter baumannii; 1 µg/mL against Candida albicans.

Regarding `Cn1cc(NC(=O)c2ccc(/C=C/c3cnc4ccccc4c3)cc2)cc1C(=O)NCCN1CCOCC1.O=C(O)C(F)(F)F.O=C(O)C(F)(F)F`, the CC50 in the test on HEK293 (setting [1]) amounted to 2.42 µg/mL. The MIC is 32 µg/mL against Cryptococcus neoformans; 2 µg/mL in the test with Staphylococcus aureus; more than 32 µg/mL against Escherichia coli; more than 32 µg/mL in the test on Klebsiella pneumoniae; more than 32 µg/mL against Pseudomonas aeruginosa; more than 32 µg/mL in the test with Acinetobacter baumannii. The compound also had an MIC with Candida albicans of more than 32 µg/mL.

Consider `Cn1cc(NC(=O)c2ccc(/C=C/c3cnc4ccccc4c3)cc2)cc1C(=O)Nc1cc(C(=O)NCCN2CCOCC2)n(CCCc2ccccc2)c1.O=C(O)C(F)(F)F.O=C(O)C(F)(F)F`, for which the MIC in the test on Cryptococcus neoformans is 4 µg/mL and 8 µg/mL; with Staphylococcus aureus, more than 32 µg/mL; against Escherichia coli it was more than 32 µg/mL; in the test on Klebsiella pneumoniae it was more than 32 µg/mL; in the test on Pseudomonas aeruginosa, more than 32 µg/mL; in the test on Acinetobacter baumannii, more than 32 µg/mL. Moreover, the MIC against Candida albicans was more than 32 µg/mL.

On to `Cn1cc(NC(=O)c2ccc(/C=C/c3cnc4ccccc4c3)cc2)cc1C(=O)Nc1cc(C(=O)NCCN2CCOCC2)n(CCCN=[N+]=[N-])c1.O=C(O)C(F)(F)F.O=C(O)C(F)(F)F`, for which the cytotoxic concentration (CC50) with HEK293 (setting [1]) worked out at 4.48 µg/mL. The MIC is 16 µg/mL against Cryptococcus neoformans; 2 µg/mL in the test on Staphylococcus aureus; more than 32 µg/mL against Escherichia coli; more than 32 µg/mL in the test on Klebsiella pneumoniae; more than 32 µg/mL in the test with Pseudomonas aeruginosa; more than 32 µg/mL against Acinetobacter baumannii. This compound displayed an MIC against Candida albicans of more than 32 µg/mL.

Consider `COc1ccc(C(=N)Nc2cc(C(=O)Nc3nc(C(=O)NCCN4CCOCC4)c(CCc4ccccc4)s3)n(C)c2)cc1.O=C(O)C(F)(F)F.O=C(O)C(F)(F)F`, for which the CC50 with HEK293 (setting [1]) came to 8.88 µg/mL. Moreover, the MIC was 8 µg/mL in the test with Staphylococcus aureus; more than 32 µg/mL with Escherichia coli; more than 32 µg/mL with Klebsiella pneumoniae; more than 32 µg/mL in the test with Pseudomonas aeruginosa; more than 32 µg/mL against Acinetobacter baumannii; more than 32 µg/mL with Candida albicans.

On to `Cn1cc(NC(=O)c2cc(NC(=O)c3ccc(/C=C/c4cnc5ccccc5c4)cc3)cn2C)cc1C(=O)NCCC(=N)N.O=C(O)C(F)(F)F.O=C(O)C(F)(F)F`, for which the 50% cytotoxic concentration (CC50) with HEK293 (setting [1]) is 6.55 µg/mL. Further, the MIC with Cryptococcus neoformans was 8 µg/mL; against Staphylococcus aureus, more than 32 µg/mL; with Escherichia coli it was more than 32 µg/mL; against Klebsiella pneumoniae, more than 32 µg/mL; in the test on Pseudomonas aeruginosa, more than 32 µg/mL; against Acinetobacter baumannii it was more than 32 µg/mL. In addition, the MIC in the test on Candida albicans was found to be 32 µg/mL.

On to `Cn1cc(NC(=O)c2cc(NC(=O)c3ccc(/C=C/c4ccc5nonc5c4)cc3)cn2C)cc1C(=O)NCCN1CCOCC1.O=C(O)C(F)(F)F`, for which the MIC in the test with Cryptococcus neoformans, against Staphylococcus aureus, against Escherichia coli, in the test with Klebsiella pneumoniae, with Pseudomonas aeruginosa and with Acinetobacter baumannii was more than 32 µg/mL each time. For the same compound, the MIC against Candida albicans is more than 32 µg/mL.

Take `CC(C)CCc1sc(NC(=O)c2cc(NC(=O)c3cc(NC(=N)N)cn3C)cn2C)nc1C(=O)NCCCN(C)C.O=C(O)C(F)(F)F.O=C(O)C(F)(F)F`: the CC50 with HEK293 (setting [1]) turned out to be 19.9 µg/mL. Moreover, the MIC in the test with Cryptococcus neoformans is 4 µg/mL; in the test on Staphylococcus aureus, 16 µg/mL; against Escherichia coli, more than 32 µg/mL; against Klebsiella pneumoniae, more than 32 µg/mL; in the test with Pseudomonas aeruginosa, more than 32 µg/mL; against Acinetobacter baumannii, more than 32 µg/mL. The same compound showed an MIC with Candida albicans of more than 32 µg/mL.

`COc1cccc(/C=C/c2ccc(C(=O)Nc3cc(C(=O)Nc4cc(C(=O)NCCN5CCOCC5)n(C)c4)n(C)c3)cc2)c1.O=C(O)C(F)(F)F`: the CC50 in the test on HEK293 was found to be 3.46 µg/mL; with HEK293 (setting [1]), 3.75 µg/mL. The MIC in the test on Staphylococcus aureus, in the test on Escherichia coli, against Klebsiella pneumoniae, against Pseudomonas aeruginosa, in the test with Acinetobacter baumannii and against Candida albicans was more than 32 µg/mL throughout.

Take `CN(C)CCNC(=O)c1cc(NC(=O)c2cc(NC(=O)c3ccc(/C=C/c4ccc(N(C)C)cc4)nc3)cn2C)cn1C.O=C(O)C(F)(F)F.O=C(O)C(F)(F)F`: the CC50 in the test on HEK293 (setting [1]) amounted to 1.13 µg/mL. Besides, the MIC is 2 µg/mL against Cryptococcus neoformans; 2 µg/mL in the test on Staphylococcus aureus; more than 32 µg/mL in the test with Escherichia coli; more than 32 µg/mL against Klebsiella pneumoniae; more than 32 µg/mL against Pseudomonas aeruginosa; more than 32 µg/mL in the test with Acinetobacter baumannii. The compound further displayed an MIC in the test on Candida albicans of 4 µg/mL.

With `Cn1cc(NC(=O)c2cc(NC=O)cn2C)cc1C(=O)NCCC(=N)N.O=C(O)C(F)(F)F`, in the test on HEK293 (setting [1]), the CC50 is more than 32 µg/mL. For the same compound, the MIC with Cryptococcus neoformans, in the test with Staphylococcus aureus, with Escherichia coli, against Klebsiella pneumoniae, against Pseudomonas aeruginosa and in the test on Acinetobacter baumannii was more than 32 µM in each case. The MIC with Candida albicans was more than 32 µM.

As to `COc1ccc(C(=N)Nc2cc(C(=O)Nc3nc(C(=O)NCCN4CCOCC4)c(CCc4ccccc4)s3)n(C)c2)cc1`, in the test with HEK293 (setting [1]), the cytotoxic concentration (CC50) came out at 7.47 µg/mL (≈ 12.1 µM). Besides, the MIC against Cryptococcus neoformans is 1 µg/mL; in the test with Staphylococcus aureus, 16 µg/mL; against Escherichia coli, more than 32 µg/mL; in the test with Klebsiella pneumoniae, more than 32 µg/mL; with Pseudomonas aeruginosa, more than 32 µg/mL; in the test on Acinetobacter baumannii it was more than 32 µg/mL. In the test with Candida albicans, this compound returned an MIC of more than 32 µg/mL.

`Cn1cc(NC(=O)c2cc(NC(=O)c3ccc(/C=C/c4cnc5ccccc5c4)cc3)cn2C)cc1C(=O)NCCN1CCCC1=O.O=C(O)C(F)(F)F`: the CC50 with HEK293 (setting [1]) was 12.7 µg/mL. Further, the MIC in the test on Cryptococcus neoformans, in the test on Staphylococcus aureus, against Escherichia coli, against Klebsiella pneumoniae, against Pseudomonas aeruginosa and in the test on Acinetobacter baumannii was more than 32 µg/mL each time. This compound also had an MIC in the test with Candida albicans of more than 32 µg/mL.

Take `Cn1cc(NC(=O)c2cc(NC(=N)c3cnc4ccccc4c3)cn2C)cc1C(=O)NCCC(=N)N.O=C(O)C(F)(F)F.O=C(O)C(F)(F)F.O=C(O)C(F)(F)F`: the CC50 in the test on HEK293 (setting [1]) was more than 32 µg/mL. Also, the MIC against Cryptococcus neoformans, against Staphylococcus aureus, in the test with Escherichia coli, with Klebsiella pneumoniae, with Pseudomonas aeruginosa and with Acinetobacter baumannii was more than 32 µg/mL in each case. Besides, the MIC in the test with Candida albicans is more than 32 µg/mL.

Consider `Cn1cc(NC(=O)c2ccc(/C=C/c3cnc4ccccc4c3)cc2)cc1C(=O)Nc1nc(C(=O)NCCN2CCOCC2)c(C2CCCCC2)s1.O=C(O)C(F)(F)F.O=C(O)C(F)(F)F`, for which, in the test on HEK293 (setting [1]), the CC50 was more than 32 µg/mL. For the same compound, the MIC against Cryptococcus neoformans, with Staphylococcus aureus, with Escherichia coli, in the test with Klebsiella pneumoniae, in the test on Pseudomonas aeruginosa and against Acinetobacter baumannii was more than 32 µg/mL in each case. In the test on Candida albicans, this compound gave an MIC of more than 32 µg/mL.

On to `Cn1cc(NC(=O)c2cc(NC(=O)c3ccc(/C=C/C4CC4)cc3)cn2C)cc1C(=O)NCCN1CCOCC1.O=C(O)C(F)(F)F`, for which the MIC was 32 µg/mL with Cryptococcus neoformans; more than 32 µg/mL against Staphylococcus aureus; more than 32 µg/mL in the test on Escherichia coli; more than 32 µg/mL with Klebsiella pneumoniae; more than 32 µg/mL with Pseudomonas aeruginosa; more than 32 µg/mL in the test on Acinetobacter baumannii. In the test with Candida albicans, the MIC is more than 32 µg/mL.

On to `COc1ccc(/C=C/c2ccc(C(=O)Nc3cc(C(=O)Nc4nc(C(=O)NCCN5CCOCC5)c(C5CCCCC5)s4)n(C)c3)cn2)cc1.O=C(O)C(F)(F)F.O=C(O)C(F)(F)F`, for which the CC50 in the test with HEK293 (setting [1]) worked out at 4.56 µg/mL. The MIC in the test on Cryptococcus neoformans, in the test with Staphylococcus aureus, against Escherichia coli, in the test with Klebsiella pneumoniae, with Pseudomonas aeruginosa and against Acinetobacter baumannii was more than 32 µM in each case. In the test with Candida albicans, the MIC was more than 32 µM.

For the compound `COc1ccc(/C=C/c2ccc(C(=O)Nc3cc(C(=O)Nc4nc(C(=O)NCCN5CCOCC5)c(CCc5ccccc5)s4)n(C)c3)cn2)cc1.O=C(O)C(F)(F)F.O=C(O)C(F)(F)F`, the CC50 with HEK293 (setting [1]) is more than 32 µg/mL. Moreover, the MIC in the test with Cryptococcus neoformans, with Staphylococcus aureus, with Escherichia coli, against Klebsiella pneumoniae, in the test on Pseudomonas aeruginosa and in the test on Acinetobacter baumannii was more than 32 µg/mL each time. This compound gave an MIC in the test with Candida albicans of more than 32 µg/mL.

By CC50 is commonly meant the concentration that lowers cell viability or growth by half.

The record behind these values is ChEMBL document CHEMBL4513139, “CO-ADD screening of University of Strathclyde (UK) compounds”.
